The source of these data is US20250361239A1, “PROTEIN DEGRADERS AND USES THEREOF” (ZHUHAI YUFAN BIOTECHNOLOGIES CO., LTD., priority 2022, published 2025).

Type in all cases: cell-based
One assay relates to Hep3B cells. Put plainly: Hep3B cell killing experiment (CellTiter-Glo cell viability). As to conditions: Homo sapiens, 48 h incubation, CTG luminescence. As for the experimental part:
Hep3B cell lines were purchased from ATCC (Cat #ATCC® HB-8064™), EMEM media were purchased from ATCC (Cat #ATCC® 30-2003™), FBS was purchased from Gibco (Cat #10091148), celltiter-glo luminescent cell viability assay was purchased from promega (Cat #G7572), and 96-well plates were purchased from coming (Cat #3610).
The effect of compounds on the growth of Hep3B cells was determined by measuring cell viability and growth rate. Firstly, the cells were digested with pancreatin, and the digestion was then terminated with medium. The cells were centrifuged, and the supernatant was discarded. The centrifuged cells were resuspended in a fresh complete medium, and the cell density was adjusted to 5×10^4 cells/mL. The resuspended cells were inoculated into two identical opaque 96-well cell culture plates at 100 μL of cell suspension per well, and the cell culture plates were incubated in a cell incubator at 37° C. overnight. The next day, dilutions (20 μL) of compounds with different concentrations were added. After one of the cell plates was cooled to room temperature, 60 μL of CTG reagent was added. The luminescence values were read on the instrument as G0. The other one was incubated in a cell incubator for 48 h. After 48 h, 60 μL of CTG reagent was added, and the luminescence values were read on the instrument as G3.
(§1) According to the corresponding proliferation rate and concentration of each gradient concentration well, a gradient curve of cell proliferation was fitted using XLFit software, and the GI50 values of compounds were calculated.
Background: Cellular ATP, detected with luciferase, serves as a proxy for viable cell number.

Another assay deals with NCI-H929 cells. The assay can be described thus: NCI-H929 cell killing experiment (CellTiter-Glo cell viability). As to conditions: Homo sapiens, 48 h incubation, CTG luminescence. The protocol: NCI-H929 cell lines were purchased from ATCC (Cat #ATCC® CRL-9068™), RPMI1640 media were purchased from ATCC (Cat #ATCC® 30-2001™), FBS was purchased from Gibco (Cat #10091148), celltiter-glo luminescent cell viability assay was purchased from promega (Cat #G7572), and 96-well plates were purchased from coming (Cat #3610).
(§2) 2. Method The effect of compounds on the growth of NCI-H929 cells was determined by measuring cell viability and growth rate. Firstly, cells in the logarithmic growth phase were collected and centrifuged, and the culture supernatant was discarded. The centrifuged cells were resuspended in a fresh complete medium, and the cell density was adjusted to 5×10^4 cells/mL. The resuspended cells were inoculated into two identical opaque 96-well cell culture plates at 100 μL of cell suspension per well, and the cell culture plates were incubated in a cell incubator at 37° C. for 4 h. After 4 h, dilutions (20 μL) of compounds with different concentrations were added. After one of the cell plates was cooled to room temperature, 60 μL of CTG reagent was added, and the luminescence values were read on the instrument as G0. The other one was incubated in a cell incubator for 48 h. After 48 h, 60 μL of CTG reagent was added, and the luminescence values were read on the instrument as G3.
as §1

The subject of another assay is HL60 cells. The assay can be described thus: HL60 cell killing experiment (CellTiter-Glo cell viability). The note with it: Homo sapiens, HL-60, 48 h incubation, CTG luminescence. An outline of the steps:
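Cells seeded at 5×10^4 cells/mL, dosed after 4 h at 37 °C, then grown for 48 h. CellTiter-Glo luminescence read at the time of dosing (G0) and after 48 h (G3). GI50 fitted from proliferation rate versus concentration.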

A further assay concerns Jurkat cells. The assay can be described thus: Jurkat cell killing experiment (CellTiter-Glo cell viability). As to conditions: Homo sapiens, 48 h incubation, CTG luminescence. As for the experimental part:
Jurkat cell lines were purchased from ATCC (Cat #ATCC® TIB-152™), RPMI1640 media were purchased from ATCC (Cat #ATCC® 30-2001™), FBS was purchased from Gibco (Cat #10091148), celltiter-glo luminescent cell viability assay was purchased from promega (Cat #G7572), and 96-well plates were purchased from coming (Cat #3610).
as §2, with “The” for “2. Method The”, “Jurkat” for “NCI-H929”
as §1

Another assay addresses T1, GSPT1 (Homo sapiens, UniProt P15170+Q96SW2).
T1 construct: host or cells: HEK293
Put plainly: Degradation of GSPT1 by the compounds (HiBiT signal in GSPT1/HEK293 hibit cells). The note with it: 6 h incubation, Nano Glo HiBiT Lytic Detection. Summed up:
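HEK293 cells with HiBiT-tagged GSPT1 seeded overnight, then treated with serial compound dilutions for 6 h at 37° C. Remaining GSPT1 measured by HiBiT lytic luminescence; DC50 from fitted degradation-concentration curve.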

The test system of another assay is Raji cells. The assay can be described thus: Raji cell killing experiment (CellTiter-Glo cell viability). The note with it: Homo sapiens, 48 h incubation, CTG luminescence. As for the experimental part: Raji cell lines were purchased from ATCC (Cat #ATCC® CCL-86™), RPMI1640 media were purchased from ATCC (Cat #ATCC® 30-2001™), FBS was purchased from Gibco (Cat #10091148), celltiter-glo luminescent cell viability assay was purchased from promega (Cat #G7572), and 96-well plates were purchased from coming (Cat #3610).
as §2, with “The” for “2. Method The”, “Raji” for “NCI-H929”
as §1

The next assay deals with SU-DHL-2 cells. The assay can be described thus: SU-DHL-2 cell killing experiment (CellTiter-Glo cell viability). The note with it: Homo sapiens, 48 h incubation, CTG luminescence. As for the experimental part:
SU-DHL-2 cell lines were purchased from ATCC (Cat #ATCC® CRL-2956™), RPMI1640 media were purchased from ATCC (Cat #ATCC® 30-2001™), FBS was purchased from Gibco (Cat #10091148), celltiter-glo luminescent cell viability assay was purchased from promega (Cat #G7572), and 96-well plates were purchased from coming (Cat #3610).
as §2, with “The” for “2. Method The”, “SU-DHL-2” for “NCI-H929”
as §1

The subject of a further assay is Toledo cells. Put plainly: Toledo cell killing experiment (CellTiter-Glo cell viability). As to conditions: Homo sapiens, 48 h incubation, CTG luminescence. The protocol: Toledo cell lines were purchased from ATCC (Cat #ATCC® CRL-2631™), RPMI1640 media were purchased from ATCC (Cat #ATCC® 30-2001™), FBS was purchased from Gibco (Cat #10091148), celltiter-glo luminescent cell viability assay was purchased from promega (Cat #G7572), and 96-well plates were purchased from coming (Cat #3610).
as §2, with “The” for “2. Method The”, “Toledo” for “NCI-H929”
as §1

A further assay has as its system THP-1 cells. Put plainly: THP-1 cell killing experiment (CellTiter-Glo cell viability). As to conditions: Homo sapiens, 48 h incubation, CTG luminescence. As for the experimental part: THP-1 cell lines were purchased from ATCC (Cat #ATCC® TIB-202™), RPMI1640 media were purchased from ATCC (Cat #ATCC® 30-2001™), FBS was purchased from Gibco (Cat #10091148), celltiter-glo luminescent cell viability assay was purchased from promega (Cat #G7572), and 96-well plates were purchased from coming (Cat #3610).
as §2, with “The” for “2. Method The”, “THP-1” for “NCI-H929”
as §1

T1 sequence (P15170 whole entry): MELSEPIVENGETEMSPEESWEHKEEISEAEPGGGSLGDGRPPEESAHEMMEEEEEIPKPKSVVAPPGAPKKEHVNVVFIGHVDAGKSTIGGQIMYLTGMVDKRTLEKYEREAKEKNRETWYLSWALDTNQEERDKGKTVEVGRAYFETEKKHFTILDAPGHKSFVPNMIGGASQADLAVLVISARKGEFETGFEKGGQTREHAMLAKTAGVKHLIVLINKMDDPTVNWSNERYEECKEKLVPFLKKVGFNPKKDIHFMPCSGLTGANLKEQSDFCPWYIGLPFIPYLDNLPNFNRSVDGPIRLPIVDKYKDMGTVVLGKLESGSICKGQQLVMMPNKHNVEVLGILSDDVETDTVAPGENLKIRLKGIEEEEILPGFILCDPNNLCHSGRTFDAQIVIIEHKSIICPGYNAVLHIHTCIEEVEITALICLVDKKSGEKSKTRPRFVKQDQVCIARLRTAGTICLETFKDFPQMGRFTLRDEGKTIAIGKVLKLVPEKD
T1 sequence (Q96SW2 whole entry): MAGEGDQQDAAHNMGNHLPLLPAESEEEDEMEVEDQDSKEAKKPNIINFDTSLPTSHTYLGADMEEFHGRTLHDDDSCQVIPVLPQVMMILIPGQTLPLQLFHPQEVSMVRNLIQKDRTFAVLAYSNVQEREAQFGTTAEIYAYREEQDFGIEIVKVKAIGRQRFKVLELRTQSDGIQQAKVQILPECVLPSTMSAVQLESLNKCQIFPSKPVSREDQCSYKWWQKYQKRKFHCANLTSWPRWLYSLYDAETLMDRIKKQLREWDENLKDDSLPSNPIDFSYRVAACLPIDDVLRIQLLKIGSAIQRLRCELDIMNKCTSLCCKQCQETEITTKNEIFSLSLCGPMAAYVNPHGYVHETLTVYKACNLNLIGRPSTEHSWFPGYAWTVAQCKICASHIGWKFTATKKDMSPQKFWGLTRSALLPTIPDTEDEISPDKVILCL
T1 sequence (Q16531 whole entry partner): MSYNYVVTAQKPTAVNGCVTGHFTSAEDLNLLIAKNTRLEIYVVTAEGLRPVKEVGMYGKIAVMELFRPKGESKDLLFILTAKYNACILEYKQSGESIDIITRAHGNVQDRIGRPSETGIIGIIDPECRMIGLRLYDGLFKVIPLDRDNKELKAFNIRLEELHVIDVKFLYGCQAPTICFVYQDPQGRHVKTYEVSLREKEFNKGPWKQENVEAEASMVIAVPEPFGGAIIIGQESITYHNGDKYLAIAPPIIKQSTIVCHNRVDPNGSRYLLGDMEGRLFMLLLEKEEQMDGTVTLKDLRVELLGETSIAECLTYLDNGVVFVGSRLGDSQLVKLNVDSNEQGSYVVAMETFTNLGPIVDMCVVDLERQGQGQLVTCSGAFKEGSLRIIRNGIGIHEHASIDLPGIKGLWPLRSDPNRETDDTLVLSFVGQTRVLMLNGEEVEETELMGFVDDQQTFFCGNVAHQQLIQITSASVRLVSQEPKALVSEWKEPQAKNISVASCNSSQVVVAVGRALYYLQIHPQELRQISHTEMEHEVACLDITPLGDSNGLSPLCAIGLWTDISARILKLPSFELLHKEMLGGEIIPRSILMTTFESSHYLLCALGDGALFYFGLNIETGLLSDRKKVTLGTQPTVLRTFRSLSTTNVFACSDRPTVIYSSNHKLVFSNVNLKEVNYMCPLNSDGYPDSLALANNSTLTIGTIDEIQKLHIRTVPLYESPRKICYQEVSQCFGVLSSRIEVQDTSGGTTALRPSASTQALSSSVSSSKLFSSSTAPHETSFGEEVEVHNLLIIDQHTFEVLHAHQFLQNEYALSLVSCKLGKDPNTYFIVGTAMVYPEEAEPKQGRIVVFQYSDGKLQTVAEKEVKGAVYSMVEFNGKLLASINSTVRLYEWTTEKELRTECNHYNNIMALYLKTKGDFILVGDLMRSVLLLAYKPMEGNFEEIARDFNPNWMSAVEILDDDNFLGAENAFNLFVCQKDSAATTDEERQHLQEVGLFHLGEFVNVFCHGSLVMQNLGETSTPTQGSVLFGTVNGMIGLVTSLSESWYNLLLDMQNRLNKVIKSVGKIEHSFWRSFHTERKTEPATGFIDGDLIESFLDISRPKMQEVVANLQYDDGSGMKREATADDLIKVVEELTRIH

The term GI50 denotes the concentration giving 50% growth inhibition. In general, DC50 refers to the midpoint of the concentration-degradation curve. Higher therefore signals degradation only at high concentration. For `O=C1CCC(N2C(=O)c3cccc(NCc4cccc(C(=O)NC5CCC(c6nc7ccccc7o6)CC5)c4)c3C2=O)C(=O)N1` (centres unmarked) [Example 16], the 50% growth inhibitory concentration (GI50) in the assay on Hep3B cells is 1.36 nM; in the assay with NCI-H929 cells it was 0.96 nM; with HL60 cells it was less than 100 nM; in the assay on Jurkat cells, 4.07 nM; in the assay on Raji cells, 362 nM. On GSPT1, this compound displayed a DC50 of less than 100 nM.

On to `Cn1c2cnccc2nc1[C@H]1CC[C@H](N2Cc3ccc(CNc4cccc5c4C(=O)N(C4CCC(=O)NC4=O)C5=O)cc3C2=O)CC1` (some centres unmarked) [Example 70], for which the GI50 with Hep3B cells is 5.21 nM; with SU-DHL-2 cells, 22.3 nM; with NCI-H929 cells, 1.63 nM; in the assay with HL60 cells it was less than 100 nM. This compound registered a 50% degradation concentration (DC50) on GSPT1 of less than 100 nM.

With `COc1ccc2c(c1)nc([C@H]1CC[C@H](COc3cc(CNc4cccc5c4C(=O)N(C4CCC(=O)NC4=O)C5=O)ccn3)CC1)n2C` (some centres unmarked) [Example 75], the 50% growth inhibitory concentration (GI50) is 0.93 nM in the assay on SU-DHL-2 cells; less than 100 nM with HL60 cells; 0.45 nM in the assay with Toledo cells; 0.4 nM in the assay on Jurkat cells; 1.79 nM in the assay with Raji cells. This compound returned a half-maximal degradation concentration (DC50) on GSPT1 of less than 100 nM.

Consider `O=C1CCC(N2C(=O)c3cccc(NCc4cccc(NC(=O)[C@H]5CC[C@H](c6nc7cccnc7s6)CC5)c4F)c3C2=O)C(=O)N1` (some centres unmarked) [Example 81], for which the GI50 was 5.62 nM in the assay with SU-DHL-2 cells; 0.33 nM with NCI-H929 cells; less than 100 nM in the assay on HL60 cells; 4.03 nM with Toledo cells; 11.4 nM in the assay on Jurkat cells. Moreover, the DC50 at GSPT1 is less than 100 nM.

Turning to `CC(C)n1c(C2CCC(NC(=O)c3cccc(CNc4cccc5c4C(=O)N(C4CCC(=O)NC4=O)C5=O)c3)CC2)nc2cccnc21` (centres unmarked) [Example 83], the GI50 with Hep3B cells was 7.88 nM; with NCI-H929 cells, 5.49 nM; with HL60 cells, less than 100 nM; in the assay on THP-1 cells, 67.6 nM. In addition, on GSPT1, the DC50 was less than 100 nM.

In the case of `COc1ccc(CNc2cccc3c2C(=O)N(C2CCC(=O)NC2=O)C3=O)cc1C(=O)N[C@H]1CC[C@H](c2nc3ccncc3n2C)CC1` (some centres unmarked) [Example 89], the GI50 in the assay with SU-DHL-2 cells was 1.42 nM; in the assay with HL60 cells, less than 100 nM; in the assay on Jurkat cells, 0.5 nM; in the assay on THP-1 cells, 5.65 nM. In addition, at GSPT1, the DC50 was less than 100 nM.

Turning to `COc1ccc2c(c1)nc([C@H]1CC[C@H](NC(=O)c3cc(CNc4cccc5c4C(=O)N(C4CCC(=O)NC4=O)C5=O)ccn3)CC1)n2C` (some centres unmarked) [Example 90], the GI50 with NCI-H929 cells is 0.93 nM; in the assay with HL60 cells, less than 100 nM; with THP-1 cells, 4.14 nM; with Raji cells, 5.88 nM. Besides, the DC50 on GSPT1 is less than 100 nM.

Turning to `COc1ccc2nc([C@H]3CC[C@H](C(=O)Nc4cccc(CNc5cccc6c5C(=O)N(C5CCC(=O)NC5=O)C6=O)c4)CC3)sc2n1` (some centres unmarked) [Example 97], the GI50 is 0.46 nM in the assay with Hep3B cells; 1.51 nM in the assay on SU-DHL-2 cells; less than 100 nM in the assay with HL60 cells; 2.58 nM with THP-1 cells; 3.43 nM in the assay on Raji cells. On GSPT1, the DC50 was less than 100 nM.
